Experimental data published in patent publication US20060211760A1, “Indolamide derivatives which possess glycogen phosphorylase inhibitory activity” (AstraZeneca AB, priority 2003, published 2006).

Tests used:
conscious dogs = settings: following a glucagon challenge; cited from earlier work
db/db and ob/ob mice = db/db and ob/ob mice following treatment; cited from earlier work
hepatocytes = settings: cited from earlier work
[1] = target: T1, Human recombinant liver glycogen phosphorylase a (hrl GPa) (Homo sapiens, UniProt P06737); experiment: glycogen phosphorylase inhibition, multienzyme coupled assay of glucose-1-phosphate production from glycogen; type: biochemical; settings: hrl GPa 20 nM, 6 hours at 30° C., 1% DMSO
T1 sequence (P06737 1-847): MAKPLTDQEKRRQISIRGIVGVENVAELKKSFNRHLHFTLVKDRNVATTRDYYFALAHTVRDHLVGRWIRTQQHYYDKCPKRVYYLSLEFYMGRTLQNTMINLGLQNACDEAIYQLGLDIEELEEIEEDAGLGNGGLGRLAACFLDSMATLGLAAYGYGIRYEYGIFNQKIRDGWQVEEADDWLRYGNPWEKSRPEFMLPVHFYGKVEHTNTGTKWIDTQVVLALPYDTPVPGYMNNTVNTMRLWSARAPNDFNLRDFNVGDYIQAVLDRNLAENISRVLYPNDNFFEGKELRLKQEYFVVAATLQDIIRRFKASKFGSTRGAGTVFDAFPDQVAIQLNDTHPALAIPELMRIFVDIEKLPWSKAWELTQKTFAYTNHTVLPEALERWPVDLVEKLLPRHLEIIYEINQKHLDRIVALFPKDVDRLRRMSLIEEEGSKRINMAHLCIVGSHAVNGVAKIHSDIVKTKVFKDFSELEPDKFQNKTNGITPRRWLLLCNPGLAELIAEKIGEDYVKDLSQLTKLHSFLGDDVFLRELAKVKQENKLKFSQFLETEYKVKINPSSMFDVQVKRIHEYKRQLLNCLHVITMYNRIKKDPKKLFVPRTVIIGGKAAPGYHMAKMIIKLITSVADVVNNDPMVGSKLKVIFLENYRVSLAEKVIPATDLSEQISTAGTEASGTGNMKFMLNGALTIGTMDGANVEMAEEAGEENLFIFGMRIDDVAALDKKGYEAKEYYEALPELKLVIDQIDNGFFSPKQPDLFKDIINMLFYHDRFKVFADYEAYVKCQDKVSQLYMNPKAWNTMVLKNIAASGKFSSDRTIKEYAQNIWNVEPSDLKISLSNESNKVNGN
Procedure: The activity of the compounds is determined by measuring the inhibitory effect of the compounds on glycogen degradation, the production of glucose-1-phosphate from glycogen is monitored by the multienzyme coupled assay, as described in EP 0 846 464 A2, general method of Pesce et al (Pesce, M A, Bodourian, S H, Harris, R C, and Nicholson, J F (1977) Clinical Chemistry 23, […]). The reactions were in 384well microplate format in a volume of 50 μl. The change in fluorescence due to the conversion of the co-factor NAD to NADH is measured at 340 nm excitation, 465nm emission in a Tecan Ultra Multifunctional Microplate Reader. The reaction is in 50 mM HEPES, 3.5 mM KH2PO4, 2.5 mM MgCl2, 2.5 mM ethylene glycol-bis(b-aminoethyl ether) N,N,N′,N′-tetraacetic acid, 100 mM KCl, 8 mM D-(+)-glucose pH7.2, containing 0.5 mM dithiothreitol, the assay buffer solution. Human recombinant liver glycogen phosphorylase a (hrl GPa) 20 nM is pre-incubated in assay buffer solution with 6.25 mM NAD, 1.25 mg type m glycogen at 1.25 mg ml^−1 the reagent buffer, for 30 minutes. […] The non-inhibited activity of GPa is measured in the presence of 10 μl 5% DMSO in assay buffer solution and maximum inhibition measured in the presence of 5 mgs ml^−1 N-ethylmaleimide. […] Relative Fluoresence Units (RFUs) are measured at 340 nm excitation, 465 nm emission. […]

**Q.** For `CCN1C(C)=C(C(=O)OC(C)C)C(c2ccccc2Cl)C2=C1COC2=O` (stereo not drawn) [Bay R 3401], which arterial plasma glucose (conscious dogs) is on record?
**A.** reduced significantly

**Q.** And the hepatic glucose output (conscious dogs)?
**A.** reduced significantly

**Q.** Which plasma glucose concentration (db/db and ob/ob mice) does the source give for `CN(C)C(=O)[C@H](O)[C@H](Cc1ccccc1)NC(=O)c1cc2cc(Cl)ccc2[nH]1` [CP91149] here?
**A.** reduced, in a dose related manner

**Q.** What about the glucagon stimulated glycogenolysis (hepatocytes) of the same compound?
**A.** reduce

**Q.** And the glucose output (hepatocytes)?
**A.** reduce

**Q.** Which results are given for `O=C(N[C@@H](Cc1ccc(F)cc1)C(=O)N1CCC(O)CC1)c1cc2cc(Cl)ccc2[nH]1` [CP320626]?
**A.** plasma glucose concentration (db/db and ob/ob mice): reduced, in a dose related manner; glucagon stimulated glycogenolysis (hepatocytes): reduce; glucose output (hepatocytes): reduce

**Q.** For `O=C(N[C@@H]1Cc2ccccc2[C@H]1CO)c1cc2cc(Cl)ccc2[nH]1` [Example 2, 5-Chloro-N-[(1R,2R)-1-(hydroxymethyl)-2,3-dihydro-1H-inden-2-yl]-indole-2-carboxamide], which IC50 [1] is on record?
**A.** 868 nM
